According to patent publication US12220442B2, “Antiepileptic toxin Martentoxin and use thereof” (Shanghai Institute of Organic Chemistry, Chinese Academy of …, priority 2018, dated 2025):

How the values were obtained:
rat PTZ convulsion model = assay: Recurrent convulsive behavior of PTZ in rat; format: in vivo
Description: Adult male SD rats were placed in a transparent glass box of 40×30×50 cm to observe the convulsive reaction after administration. Before injection, rats were placed in the box 1 h in advance, moved freely to adapt to the environment, and then injected PTZ (60 mg/kg) intraperitoneally to induce convulsion in rats. The experiment was divided into toxin injection group and normal saline blank control group.
(1) MarTX toxin injection group: after one intraperitoneal injection of PTZ to induce seizures of epilepsy, the rats were injected with MarTX toxin (dissolved in 2 μL normal saline) in the hippocampus the next day, and then the PTZ was injected again. The toxin dose was 0.08 μg, n=7-8 (n is the number of experimental rats);
(2) Normal saline blank control group: after one intraperitoneal injection of PTZ to induce seizures of epilepsy, the rats were injected with the same amount of normal saline into the hippocampus one day later, and then PTZ was injected again, n=6.
In the experiment, “double-blind” dosing and animal behavioral study were used to reduce human error. Incubation period, mortality, duration and number of seizures under different severity of seizures were measured as statistical indexes. The severity of seizures in rats was rated according to the following criteria [Neurophysiol. 1972, 32, 281-294; Brain Res. 1997, 758, 92-98]: • Grade 0: no response; • Grade 1: rhythmic twitch of mouth and face; • Grade 2: wave-like migratory spasm of body; • Grade 3: systemic myoclonus and hip upturned; • Level 4: the body turned to one side; • Grade 5: inverted position, systemic rigidity spasticity seizure.
A complete convulsive seizure was defined as the period from the onset of the seizure to the return to normal after the seizure. The interval of more than 5 s between seizures was defined as another independent seizure. Incubation period was defined as the time from PTZ injection to the beginning of the first grade 2 seizure.

[1] = tested on: c-Fos expression in hippocampus; assay: c-Fos expression in hippocampus after seizures in rats (immunohistochemistry); format: in vivo, rat; set-up: concentration or dose not given beside the values
Description: After the completion of the PTZ-induced epileptic status behavior experiment, the animals were anesthetized by intraperitoneal injection of sodium pentobarbital (60 mg/kg). The blood vessels were washed by perfusion of 200 mL normal saline through the ascending aorta of the left ventricle, and then perfused with 400 mL fixative solution (0.1M PBS containing […], pH7.4, 4° C.) for 1-2 h. After the brain tissue was removed and placed in the same fixative overnight, it was immersed in 20% sucrose solution until it sank to the bottom of the container, and then immersed in 30% sucrose solution until it sank to the bottom of the container.
The hippocampal region was secreted from the brain of the rats using a refrigerator slicer (Leica 1900, Germany) with a thickness of 20 μm. The slices were pasted on gelatin-chromium potassium sulfate treated glass slide and frozen at −20° C. for later use. C-Fos immunohistochemistry was performed as follows: • (1) The slice was taken out of the −20° C. refrigerator, reheated for 30 min, framed with a histochemical pen around the slice, and dried; • (2) The slices were immersed for 30 min for braking membrane in 1% Triton-X solution added with 1% H2O2; • (3) Rinsed 3 times with 0.01M PBS (pH7.4) buffer, 5 min for each time; • (4) Sealed with 5% Goat serum at 37° C. for 1 h; • (5) The serum was sucked dry with filter paper, rabbit anti-c-Fos antibody (1: 400, Sc-52, Santa Cruz, USA) was added, the antibody was diluted with 0.01 M PBS, 100 μL for each section, and incubated in a wet box at 4° C. for 48 h; • (6) Rinsed with 0.01 M PBS (pH 7.4) for 10 min and repeated 3 times; • (7) Biotin-labeled goat anti-rabbit IgG diluted with 0.01 M PBS (1:200) was added at room temperature for 2 h; • (8) Rinsed with 0.01 M PBS for 10 min and repeated 3 times. ABC complex (A:B:PBS=1:1:100) was added at room temperature for 2 h; • (9) Rinsed with 0.01 M PBS (pH 7.4) for 10 min and repeated 3 times; • (10) Stained in the dark by DAB-nickel sulfate amine-glucose oxidase (DAB, Sangon Biotech) for 10 min; • (11) Dehydration, 70%, 80%, 95%, 100% (×2) were used for dehydration, 5 min each time, and then soaked with xylene twice, 5 min each time; • (12) The expression of c-Fos was observed under a microscope and sealed with neutral gum.
The number of c-Fos-like immunoreactive (FLI) neurons in different hippocampal regions (CA1, CA3) and dentate gyrus (DG) was counted. Two groups of animals (6 animals in each group) were randomly selected from 6 to 8 sections for FLI counting in different regions (counting respectively on the same side and the other side of injected toxin or normal saline), and the average value was calculated at last. The inhibition rate of c-Fos expression was calculated according to the following formula. Inhibitory ratio=(A−B)/A×100%
Wherein, A represents the number of FLI neurons in the normal saline control group; B represents the number of FLI neurons in the MarTX toxin injection group in the corresponding region of the hippocampus.

hippocampal neurons = assay: Hippocampal neuron damage after seizures in rats (Nissel staining); format: in vivo, rat; conditions: versus normal saline group
Description: (1) The slice was taken out of the −20° C. refrigerator, reheated for 20 min, framed with a histochemical pen around the slice, and dried;
(2) The slice was soaked in distilled water for 2 min;
(3) Nissel staining solution (purchased from Beyotime) was dropped on the brain slice, and dyed in a 37° C. water bath for 10 min;
(4) Washed twice with distilled water for 10 s each time;
(5) Sections were dehydrated with 70%, 80%, 95%, 100% alcohol, 2 min each time, and then soaked with xylene twice, 5 min each time;
(6) The nissel body staining was observed under a microscope and sealed with neutral gum.
The above two groups of animals (6 animals in each group) were randomly selected from 6 to 8 sections to count the neuron cells in different hippocampal regions (CA1, CA3 and DG). Finally, the average value was taken and the increasing rate of the number of neurons was calculated.

[2] = tested on: hippocampus field potential; assay: Field potential in hippocampus after seizure in rats; format: in vivo, rat; conditions: PTZ epilepsy model, versus normal saline group, n=3
Description: Microarray electrodes were implanted according to the sixth edition of “Rat Brain Stereotactic Atlas” (FIG. 1) edited by George Paxinos and Charles Watson to determine the position of the electrodes: AP: 4.3 mm, MR: 2.2 mm, DV: 2.5 mm, and 3-4 screws were fixed in the blank region of the skull as reference electrodes. The recording electrode and electrode base were fixed with dental cement. Field potentials (FP) were recorded after waking rats. FP signal and sync video could be recorded via omniplex (plexon, USA). According to Nesquet's sampling theory, the back end of the electrode was connected to a preamplifier and coupled to the analog-to-digital converter box. […] was taken as the sampling frequency of local field potential recording, and a […] were set for continuous recording for more than 30 minutes. The local field potential recording results were exported to *. pl2 file format, and visual preview was carried out using offline sorter v4 software. The same channel was used to analyze the local field potential, and the data were derived by MATLAB (MathWorks, USA) program. The local field potential signals of different frequencies were decomposed by wavelet transform to obtain the […] of different frequencies (δ: ˜0-4 Hz, θ: ˜4-8 Hz, α: ˜8-13 Hz, β: ˜13-30 Hz, γ: ˜30-100 Hz). […]

[3] = tested on: rat hippocampal neurons pretreated with PTZ; assay: Patch clamp current record and action potential analysis; format: cell-based
Description: If the resting membrane potential of the cell was −70 mV and the input resistance was 350MΩ or more, the patch clamp current was considered acceptable. The record was held at −80 mV as the holding current and induced by increasing positive current injection (for 1000 ms). The action potential differences between PTZ treated cells (measured 24 h after application) and PTZ treated epileptic cells (measured 10 min after application) treated with rMarTX were compared. The peak width was measured at half the peak amplitude of the action potential. The difference between the peak threshold value and the minimum voltage after the peak value of the action potential was used as the measurement value of the post-superpotential. Peak interval was the time between action potential peaks.
In the current patch clamp recording, the standard external solution was composed of 1.2 mM MgCl2, 10 mM HEPES, 10 mM glucose, 1.5 mM CaCl2, 2.5 mM KCl and 145 mM NaCl. The pH of the solution was adjusted to 7.4 with NaOH. The internal solution was composed of 1 mM CaCl2, 4 mM MgCl2, 10 mM HEPES, 11 mM EGTA, and 140 mM KCl. The pH of the solution was adjusted to 7.2 with KOH.

[4] = 0.08 μg in hippocampus, PTZ 60 mg/kg i.p., within 2 h
[5] = MarTX relative to normal saline
[6] = contralateral hippocampus, CA1 region
[7] = contralateral hippocampus, CA3 region
[8] = contralateral hippocampus, DG region
[9] = ipsilateral hippocampus, CA1 region
[10] = ipsilateral hippocampus, CA3 region
[11] = ipsilateral hippocampus, DG region
[12] = 300 pA current injection, versus normal saline group, n=4

Substance: Martentoxin [MarTX]
- Duration of epilepsy (rat PTZ convulsion model; [4]): 160.00 ± 38.47 s
- Number of deaths (rat PTZ convulsion model; [4]): 0/6
- The number of Grade 3 seizures (rat PTZ convulsion model; [4]): 0.50 ± 0.22
- The number of seizures from Grade 1 to Grade 2 (rat PTZ convulsion model; [4]): 4.33 ± 1.36
- The number of seizures from Grade 4 to Grade 5 (rat PTZ convulsion model; [4]): 0.50 ± 0.34
- Incubation (rat PTZ convulsion model; 0.08 μg in hippocampus, PTZ 60 mg/kg i.p., within 2 h, time to first grade 2 seizure): 427.17 ± 62.21 s
- Decrease of the number of epileptic seizures (Grade 4 & 5) (rat PTZ convulsion model; 0.08 μg, versus control group): 77%
- Duration of epilepsy, relative amplitude (rat PTZ convulsion model; [5]): 40%
- Incubation, relative amplitude (rat PTZ convulsion model; [5]): 272%
- The number of Grade 3 seizures, relative amplitude (rat PTZ convulsion model; [5]): 14%
- The number of seizures from Grade 1 to Grade 2, relative amplitude (rat PTZ convulsion model; [5]): 42%
- The number of seizures from Grade 4 to Grade 5, relative amplitude (rat PTZ convulsion model; [5]): 23%
- Reduction of the number of Grade 3 seizures (rat PTZ convulsion model; versus blank control group): 86%
- Reduction of the duration of epilepsy (rat PTZ convulsion model; versus control group): (2) MarTX toxin also significantly reduced the duration of epilepsy (duration of MarTX group: 160.00 ± 38.47 s, n = 6, *P < 0.05; control group was 400.00 ± 97.57 s, n = 6) by about 60%.
- Inhibitory rate of c-Fos expression [1, 6]: 54.01%
- Inhibitory rate of c-Fos expression [1, 7]: 55.25%
- Inhibitory rate of c-Fos expression [1, 8]: 78.53%
- Inhibitory rate of c-Fos expression [1, 9]: 60.71%
- Inhibitory rate of c-Fos expression [1, 10]: 51.18%
- Inhibitory rate of c-Fos expression [1, 11]: 84.98%
- Neuronal increase rate (hippocampal neurons; [6]): 79.50%
- Neuronal increase rate (hippocampal neurons; [7]): 94.82%
- Neuronal increase rate (hippocampal neurons; [8]): 79.62%
- Neuronal increase rate (hippocampal neurons; [9]): 95.73%
- Neuronal increase rate (hippocampal neurons; [10]): 102.02%
- Neuronal increase rate (hippocampal neurons; [11]): 93.43%
- Power spectrum density of brain δ, θ, α, β and γ waves [2]: significantly lower
- Discharge rate (number of action potentials) ([3]; 100, 200 and 300 pA current injection, versus normal saline group, n=4): significant decrease
- Action potential peak interval ([3]; 300 pA current injection, versus PTZ pretreated cells (normal saline group), n=4): significantly longer
- Action potential width [3, 12]: greater
- Amplitude of the post-hypertrophy potential [3, 12]: significantly increased
- Action potential failure ([3]; higher current injection (300 pA), versus normal saline group): more action potential failure
